The values that follow come from patent US20240374681A1, “Formulation for Co-Administration of Q-GRFT and Tenofovir” (priority 2021, published 2024).

Series [1] can be described thus: Q-GRFT content determination by HPLC (incl. stability study). Type of series: physicochemical. The conditions noted are these: molar ratios 3, 6, 12 to Q-GRFT monomer, 40° C./75% RH for 3 months. The protocol:
Stability Study Procedure: Individual enema bottles containing 125 ml of solution were stored under three conditions (4° C.; 25° C./60% RH; 40° C./75% RH) and monitored over time (24 months for 4° C. and 25° C./60% RH; 6 months for 40°° C./75% RH). At each time point (1, 2, 3, 6, 9, 12, 18, and 24 months), physicochemical characteristics were evaluated and compared against the critical quality assessments (CQAs) according to the following procedures.
Q-GRFT Content Determination by High-Performance Liquid Chromatography: The High-Performance Liquid Chromatography (HPLC) method for measuring Q-GRFT content was previously developed and reported elsewhere. The samples were diluted 2 times with Milli-Q water. The Q-GRFT content was detected by an HPLC system (Waters Corporation, Milford, MA) equipped with an auto-injector (model 717), a quaternary pump (model 600), and a photodiode array detector (model 2996)) with a C5 column (Jupiter 5 μm 300 Å, 250×4.6 mm) and a C5 pre-column (Security Guard Standard Widepore).
Lyophilization: For samples with cryoprotectants, sugar/sugar polyol powders were weighed and added in individual scintillation vials. The Q-GRFT stock solution was then added. The sample vials were mixed until the powder dissolved. Next, the vials containing sample solution (with or without the addition of cryoprotectants) were transferred to a −80° C. freezer to freeze overnight. Until lyophilization, the samples were tilted and placed in the beaker, attached to a pre-set lyophilizer (Labconco FreeZone Freeze Dry System, Kansas City, MO). The lyophilizing process was set to maintain the environment at −50° C. and 0.070 mBar. Sample vials were measured for their weights after lyophilizing for at least two days. Once the weights were stable, indicating no more water was removed, the lyophilized powder was taken out of the vials and ground with a mortar and pestle. The lyophilized powder would be packed in a tube at 4° C. (unless other conditions were indicated) until further characterizations.
Q-GRFT Content Determination by High-Performance Liquid Chromatography (HPLC): The HPLC method for measuring the Q-GRFT content was developed in-house and reported previously. The samples were diluted 2 times with Milli-Q water. The Q-GRFT content was detected by an HPLC system (Waters Corporation, Milford, MA) equipped with an auto-injector (model 717), a quaternary pump (model 600), and a photodiode array detector (model 2996)) with a C5 column (Jupiter 5 μm 300 Å, 250×4.6 mm) and a C5 pre-column (Security Guard Standard Widepore).

Series [2] relates to Caco-2 monolayer cell model. The following applies: 2-hour treatment, threshold 165 Ω*cm^2.
Procedure: Caco-2 Monolayer Cell Model Toxicity Study Procedure: Passages 33 to 43 of the Caco-2 cell line were used in the studies. The Caco-2 cells were cultured in complete Dulbecco's modified Eagle's medium (DMEM) [500 ml of DMEM (Corning) containing 50 ml fetal bovine serum (FBS; Gibco Qualified One-Shot, Thermo Scientific) and 5 ml PEST (penicillin 10,000 U/ml-streptomycin, 10,000 ug/ml-glutamine 29.2 mg/ml solution (100×); Gibco, Fisher Scientific)] at 37° C. with 5% CO2 incubation. […] After overnight incubation, the samples were added to the wells and treated for 24 hours. […] A toxicity study utilizing the Caco-2 model was performed prior to permeability studies to examine the safety of the complete liquid formulations. Samples were applied on the apical side of the Transwell. After 2-hour treatments, the treated samples were discarded and washed off twice with HBSS. […] TEER values were also measured before and after the treatments as supplemental criteria for the toxicity study.
The subject of series [3] is Caco-2 monolayer cell model. As to the kind of experiment: Caco-2 monolayer permeability of paracellular marker [^14C]-Mannitol. The source says: Caco-2 Monolayer Cell Model Permeability Study Procedure: The procedure was adapted from a previously reported method to build a Caco-2 monolayer cell model and perform the permeability studies. Cell passages 34 to 42 were used to build the model in different batches. For preparation, a total of 3×10^5 Caco-2 cells were dispensed on the apical side of each Transwell filter. The model would be ready after 21-29 days of culture. The model was validated with a paracellular marker, [^14C]-Mannitol. […] To study the permeability, the sample solution was gently dispensed on the apical side of the model and cultured at 37° C. for 2 hours. […] The apparent permeability coefficients (Papp) were calculated using Equation 1, below.
[formula] [formula] • Papp (cm/sec): the apparent permeability coefficient;
(ng/sec): the rate of drug transportation; A (cm^2): the surface area of the cell layers; C0 (ng/ml): The initial drug concentration in the donor side.
In general terms: Caco-2 cells form a polarised layer with tight junctions and transporters.

Series [4] in a line: pH measurement of enema formulations / reconstituted solutions (pH meter). Type of series: physicochemical. The conditions noted are these: stock solution in 1× PBS. The source says:
To investigate if the vehicle strength impacts the pH and osmolality of formulations, PBS-base was used directly (1× PBS) or diluted (50% PBS) with or without the addition of TFV and Q-GRFT. To study if the vehicle composition impacts the pH and osmolality of formulations, PBS-base and saline-base were used directly (1× PBS; 1× saline) with the addition of TFV and Q-GRFT. Three formulations (50% PBS, 1× PBS, 1× saline; all with the addition of TFV and Q-GRFT) were chosen to further evaluate the effects of pH adjusting agents on osmolality. For the final screening, both vehicles (PBS-base and saline-base) were diluted into three strengths, 30%, 35%, and 40% with the addition of TFV and Q-GRFT. pH and osmolality were measured as in-line checkpoints for screening and quality assurance.
Manufacturing Procedure: Stock buffer (10× PBS or Saline) was diluted with Milli-Q water to a solution with lower osmolality than desired (˜40 mOsm/kg lower). […] Finally, Q-GRFT stock solution (in 1× PBS) was measured and added to the solution to make the final product. […]
pH: The pH was determined using a pH meter (XL150 pH Benchtop Meters, Fisher Scientific). […]
pH: The pH was determined by a pH meter (XL150 pH Benchtop Meters, Thermo Fisher Scientific; Waltham, MA). […] The pH was recorded only after the value stayed stable.

The next series deals with HIV-1 gp120CM. The series is described as follows: gp120 binding bioactivity by ELISA. Here is the method: Bioactivity Determination using Enzyme-linked Immunosorbent Assay (ELISA): An ELISA was applied to evaluate the gp120 binding activity of select Q-GRFT samples. Nunc MaxiSorp 96-well plates were used for this experiment. The MaxiSorp surface is a hydrophilic/hydrophobic mix that binds to a wide range of biomolecules. In short, gp120 was bound to the wells of a 96-well plate overnight at 4° C. The HIV-1 gp120CM was purchased from Kentucky Bioprocessing (KBP; Part #C-1312). After overnight incubation, the solution of gp120 was removed, and a blocking solution (1× PBS-T [PBS with 0.05% Tween 20]) was applied for two hours at room temperature. After that, the wells were washed and incubated with various dilutions of Q-GRFT samples for one hour. Gp120 binding was detected by applying goat anti-Q-GRFT primary antibody (one-hour incubation) and HRP-labeled rabbit anti-goat secondary antibody (one-hour incubation), sequentially. […] Gp120 binding was measured at 450 nm.
Bioactivity Determination by Enzyme-linked Immunosorbent Assay (ELISA): An ELISA was adapted and applied to evaluate the gp120 binding activity of the Q-GRFT samples. […] Gp120 binding was detected by applying goat anti-Q-GRFT primary antibody (one-hour incubation) and HRP-labeled rabbit anti-goat secondary antibody (one-hour incubation), sequentially. […] Gp120 binding was measured at 450 nm with a plate reader.
In general terms: In an ELISA, binding on a coated surface is turned into a signal by an enzyme label.

In a further series the test system is human colon tissue. As to the kind of experiment: Ex vivo human colon tissue permeability of Q-GRFT in Ussing chamber. The conditions noted are these: all time points, LLOQ of the HPLC method.
Series [5] concerns Caco-2 monolayer cell model. The conditions noted are these: reported literature value; cited from earlier work.

Procedure for human colon tissue: Permeability and Toxicity Assessment with the Ex Vivo Human Colon Tissue: Tissue specimens were collected from patients 18-75 years old. A section of each tissue was retained for histological evaluation with hematoxylin and eosin (H&E) staining assay. After removal of the excess stromal tissue, the epithelial tissue was placed between the donor and receptor compartments of the Ussing chamber apparatus with the epithelial side toward the donor compartment. This set-up was maintained at 37° C. throughout the experiment. Both donor and receptor compartments were filled with KRBG during system calibration. Then the KRBG buffer from the donor sides was replaced with sample solutions. 50 μL was removed from the donor compartment at the beginning and the end of the experiments. At predetermined time points (Time 0, 15, 30, 45, 60, 75, 90, 120 minutes), 200 μL was removed from the receptor chamber and the same volume of fresh KRBG was added for replacement. These samples were held at 4° C. until analyzed by UPLC (for TFV) or HPLC (for Q-GRFT). The Papp values were calculated using Equation 1 as described above. All tissues, including pre-treatment and post-treatment tissues from all groups, were processed for paraffin sectioning. The tissue sections were embedded into paraffin blocks using the Leica EG 1160 embedding station. […]

Consider `OC[C@H]1O[C@H](O[C@H]2O[C@H](CO)[C@@H](O)[C@H](O)[C@H]2O)[C@H](O)[C@@H](O)[C@@H]1O` [trehalose], for which the “Cryoprotecting effect on Q-GRFT content of lyophilized powder” value in series [1] is “concentration-independent protection”.
On the same count and under the same terms, the value for `OC[C@H]1O[C@@](CO)(O[C@H]2O[C@H](CO)[C@@H](O)[C@H](O)[C@H]2O)[C@@H](O)[C@@H]1O` [sucrose] was “concentration-dependent protection”.
Consider `C=O` [formaldehyde], for which the “TEER value after treatment” value in series [2] is < 165 Ω*cm^2.
In the case of `CCCCCCCCCCCCOS(=O)(=O)[O-].[Na+]` [20% SDS (positive control)], the “Paracellular marker [^14C]-Mannitol: Papp” value in series [3] (Caco-2) is 30 ± 1 ×10⁻⁶ cm/s.
With `OC[C@@H](O)[C@@H](O[C@H]1O[C@H](CO)[C@@H](O)[C@H](O)[C@H]1O)[C@H](O)[C@@H](O)CO` [maltitol], in series [1], the “Cryoprotecting effect on Q-GRFT content of lyophilized powder” value is listed as “concentration-dependent protection”.
Still for that read-out and setting: the value for `OC[C@@H](O)[C@@H](O[C@@H]1O[C@H](CO)[C@H](O)[C@H](O)[C@H]1O)[C@H](O)[C@@H](O)CO` [lactitol] was “no protection”.
As to “Q-GRFT: engineered form of griffithsin with increased stability against oxidation; stock solution in 1× PBS”, in series [4], the “pH of Q-GRFT stock solution” value was “around 7.39”. The “EC50 gp120 binding (ELISA)” value at HIV-1 gp120CM (after lyophilization and reconstitution, Example 2 (FIG. 18)) was found to be 7.02 ng/mL; on HIV-1 gp120CM (reference solution, Example 1 (FIG. 11)) it was 11.70 ng/mL. In the series on human colon tissue, the “Q-GRFT content from the receptor sides” value was below 1 µg/mL.
`OCC(O)C(O)C(O)C(O)[14CH2]O` (stereo not drawn) [[^14C]-Mannitol]: in series [5], the “Papp of [^14C]-Mannitol, reported value” is 0.12 ×10⁻⁶ cm/s. In addition, in series [3] (tested using this Caco-2 monolayer cell model), the “Papp of [^14C]-Mannitol (model validation)” value amounted to 0.33 ×10⁻⁶ cm/s.
